In PubChem BioAssay (NCI):
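GI50 = concentration required for 50% inhibition of growth. The concentration for full growth arrest is given as TGI.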

How the values were obtained:
Experiment in all cases: NCI anticancer screen, dose series, 384-well format
BT-549 breast = system: BT-549 breast
M14 melanoma = system: M14 melanoma
A549 NSCLC = system: A549 NSCLC
OVCAR-5 ovarian = system: OVCAR-5 ovarian
MALME-3M melanoma = system: MALME-3M melanoma
MDA-MB-435 melanoma = system: MDA-MB-435 melanoma
SNB-75 CNS = system: SNB-75 CNS
MCF7 breast = system: MCF7 breast
OVCAR-8 ovarian = system: OVCAR-8 ovarian
NCI-H23 lung = system: NCI-H23 lung
TK-10 renal = system: TK-10 renal
IGROV1 ovarian = system: IGROV1 ovarian
NCI-H522 lung = system: NCI-H522 lung
UO-31 renal = system: UO-31 renal
CAKI-1 renal = system: CAKI-1 renal
KM12 colon = system: KM12 colon
COLO 205 colon = system: COLO 205 colon
DU-145 prostate = system: DU-145 prostate
NCI-H322M lung = system: NCI-H322M lung
NCI/ADR-RES ovarian = system: NCI/ADR-RES ovarian
HOP-92 NSCLC = system: HOP-92 NSCLC
MDA-MB-231 breast = system: MDA-MB-231 breast
SNB-19 CNS = system: SNB-19 CNS
LOX IMVI melanoma = system: LOX IMVI melanoma
RXF 393 renal = system: RXF 393 renal
HCC-2998 colon = system: HCC-2998 colon
T-47D breast = system: T-47D breast
SN12C renal = system: SN12C renal
HCT-15 colon = system: HCT-15 colon
SF-539 CNS = system: SF-539 CNS
MOLT-4 leukemia = system: MOLT-4 leukemia
SF-268 CNS = system: SF-268 CNS
EKVX NSCLC = system: EKVX NSCLC
HOP-62 NSCLC = system: HOP-62 NSCLC
OVCAR-4 ovarian = system: OVCAR-4 ovarian
MDA-MB-468 breast = system: MDA-MB-468 breast
SK-OV-3 ovarian = system: SK-OV-3 ovarian
OVCAR-3 ovarian = system: OVCAR-3 ovarian
HS 578T breast = system: HS 578T breast
HL-60(TB) leukemia = system: HL-60(TB) leukemia
ACHN renal = system: ACHN renal
NCI-H226 lung = system: NCI-H226 lung
A498 renal = system: A498 renal
PC-3 prostate = system: PC-3 prostate
CCRF-CEM leukemia = system: CCRF-CEM leukemia
UACC-62 melanoma = system: UACC-62 melanoma
HT29 colon = system: HT29 colon
U251 glioblastoma = system: U251 glioblastoma
SK-MEL-5 melanoma = system: SK-MEL-5 melanoma
SW-620 colon = system: SW-620 colon
786-0 renal = system: 786-0 renal
K-562 leukemia = system: K-562 leukemia
UACC-257 melanoma = system: UACC-257 melanoma
SK-MEL-28 melanoma = system: SK-MEL-28 melanoma
NCI-H460 NSCLC = system: NCI-H460 NSCLC
SF-295 CNS = system: SF-295 CNS
HCT-116 colon = system: HCT-116 colon
RPMI-8226 leukemia = system: RPMI-8226 leukemia

Compound: CN1CCN(c2ccc(C(=O)Nc3cc(-c4cccc(NS(=O)(=O)c5ccccc5)c4)[nH]n3)cc2)CC1
- GI50 (BT-549 breast): 1.17 µM
- TGI (BT-549 breast): 2.42 µM
- GI50 (M14 melanoma): 1.65 µM
- TGI (M14 melanoma): 3.03 µM
- GI50 (A549 NSCLC): 1.78 µM
- TGI (A549 NSCLC): 3.3 µM
- GI50 (OVCAR-5 ovarian): 1.89 µM
- TGI (OVCAR-5 ovarian): 3.94 µM
- GI50 (MALME-3M melanoma): 1.64 µM
- TGI (MALME-3M melanoma): 3.01 µM
- GI50 (MDA-MB-435 melanoma): 1.96 µM
- TGI (MDA-MB-435 melanoma): 3.41 µM
- GI50 (SNB-75 CNS): 0.949 µM
- TGI (SNB-75 CNS): 2.37 µM
- GI50 (MCF7 breast): 1.41 µM
- TGI (MCF7 breast): 2.92 µM
- GI50 (OVCAR-8 ovarian): 1.81 µM
- TGI (OVCAR-8 ovarian): 3.35 µM
- GI50 (NCI-H23 lung): 1.91 µM
- TGI (NCI-H23 lung): 3.75 µM
- GI50 (TK-10 renal): 2.27 µM
- TGI (TK-10 renal): 4.56 µM
- GI50 (IGROV1 ovarian): 0.628 µM
- TGI (IGROV1 ovarian): 1.93 µM
- GI50 (NCI-H522 lung): 1.88 µM
- TGI (NCI-H522 lung): 3.55 µM
- GI50 (UO-31 renal): 3.69 µM
- TGI (UO-31 renal): 10.4 µM
- GI50 (CAKI-1 renal): 1.67 µM
- TGI (CAKI-1 renal): 3.08 µM
- GI50 (KM12 colon): 0.025 µM
- TGI (KM12 colon): 1.38 µM
- GI50 (COLO 205 colon): 0.891 µM
- TGI (COLO 205 colon): 2.14 µM
- GI50 (DU-145 prostate): 2.33 µM
- TGI (DU-145 prostate): 4.97 µM
- GI50 (NCI-H322M lung): 1.93 µM
- TGI (NCI-H322M lung): 4.22 µM
- GI50 (NCI/ADR-RES ovarian): > 100 µM
- TGI (NCI/ADR-RES ovarian): > 100 µM
- GI50 (HOP-92 NSCLC): 1.37 µM
- TGI (HOP-92 NSCLC): 2.87 µM
- GI50 (MDA-MB-231 breast): 1.52 µM
- TGI (MDA-MB-231 breast): 3.3 µM
- GI50 (SNB-19 CNS): 2.02 µM
- TGI (SNB-19 CNS): 4.48 µM
- GI50 (LOX IMVI melanoma): 1.62 µM
- TGI (LOX IMVI melanoma): 3.01 µM
- GI50 (RXF 393 renal): 1.24 µM
- TGI (RXF 393 renal): 2.52 µM
- GI50 (HCC-2998 colon): 1.47 µM
- TGI (HCC-2998 colon): 3.01 µM
- GI50 (T-47D breast): 1.37 µM
- TGI (T-47D breast): 2.69 µM
- GI50 (SN12C renal): 2.44 µM
- TGI (SN12C renal): 8.74 µM
- GI50 (HCT-15 colon): 3.5 µM
- TGI (HCT-15 colon): 8.85 µM
- GI50 (SF-539 CNS): 0.838 µM
- TGI (SF-539 CNS): 2.11 µM
- GI50 (MOLT-4 leukemia): 1.2 µM
- TGI (MOLT-4 leukemia): 2.44 µM
- GI50 (SF-268 CNS): 1.23 µM
- TGI (SF-268 CNS): 2.7 µM
- GI50 (EKVX NSCLC): 2.1 µM
- TGI (EKVX NSCLC): 4.87 µM
- GI50 (HOP-62 NSCLC): 1.59 µM
- TGI (HOP-62 NSCLC): 3.31 µM
- GI50 (OVCAR-4 ovarian): 1.79 µM
- TGI (OVCAR-4 ovarian): 4.07 µM
- GI50 (MDA-MB-468 breast): 2.09 µM
- TGI (MDA-MB-468 breast): 3.62 µM
- GI50 (SK-OV-3 ovarian): 1.16 µM
- TGI (SK-OV-3 ovarian): 2.44 µM
- GI50 (OVCAR-3 ovarian): 1.62 µM
- TGI (OVCAR-3 ovarian): 3.03 µM
- GI50 (HS 578T breast): 1.31 µM
- TGI (HS 578T breast): 2.6 µM
- GI50 (HL-60(TB) leukemia): 2.48 µM
- TGI (HL-60(TB) leukemia): 3.96 µM
- GI50 (ACHN renal): 2.15 µM
- TGI (ACHN renal): 4.66 µM
- GI50 (NCI-H226 lung): 0.111 µM
- TGI (NCI-H226 lung): 11.6 µM
- GI50 (A498 renal): 2.07 µM
- TGI (A498 renal): 3.53 µM
- GI50 (PC-3 prostate): 2.57 µM
- TGI (PC-3 prostate): 7.41 µM
- GI50 (CCRF-CEM leukemia): 1.62 µM
- TGI (CCRF-CEM leukemia): 2.99 µM
- GI50 (UACC-62 melanoma): 1.8 µM
- TGI (UACC-62 melanoma): 3.2 µM
- GI50 (HT29 colon): 1.52 µM
- TGI (HT29 colon): 2.93 µM
- GI50 (U251 glioblastoma): 1.64 µM
- TGI (U251 glioblastoma): 3.03 µM
- GI50 (SK-MEL-5 melanoma): 1.46 µM
- TGI (SK-MEL-5 melanoma): 2.79 µM
- GI50 (SW-620 colon): 1.84 µM
- TGI (SW-620 colon): 3.33 µM
- GI50 ([…]-0 renal): 1.56 µM
- TGI (786-0 renal): 2.98 µM
- GI50 (K-562 leukemia): 1.45 µM
- TGI (K-562 leukemia): 2.79 µM
- GI50 (UACC-257 melanoma): 1.78 µM
- TGI (UACC-257 melanoma): 3.18 µM
- GI50 (SK-MEL-28 melanoma): 2.17 µM
- TGI (SK-MEL-28 melanoma): 3.63 µM
- GI50 (NCI-H460 NSCLC): 1.69 µM
- TGI (NCI-H460 NSCLC): 3.15 µM
- GI50 (SF-295 CNS): 1.89 µM
- TGI (SF-295 CNS): 3.4 µM
- GI50 (HCT-116 colon): 1.66 µM
- TGI (HCT-116 colon): 3.08 µM
- GI50 (RPMI-8226 leukemia): 1.45 µM
- TGI (RPMI-8226 leukemia): 2.78 µM
